Source: patent publication US7045343B2, “Sterilization indicator test packs” (3M Innovative Properties Company, priority 1998, dated 2006)

Assays:
[1] = system: enzyme associated with Bacillus stearothermophilus spores; test: Rapid enzyme fluorescence readout of indicators after hydrogen peroxide plasma sterilization; format: biochemical; conditions: for FLUORESCENCE - PERCENT POSITIVE 1 HR / FLUORESCENCE - PERCENT POSITIVE 2 HR / FLUORESCENCE - PERCENT POSITIVE 3 HR / FLUORESCENCE - PERCENT POSITIVE 4 HR / FLUORESCENCE - PERCENT POSITIVE 5 HR: Example 6, 50 mg/ml coating, 1–22 min diffusion
Method: (§1) Sterilization indicators for Examples 6–9 were prepared as described above with the exception that closure member 22 of the sterilization indicator was constructed of TYVEK™ high-density polyethylene fiber material, commercially available from E.I. du Pont de Nemours and Co., Wilmington, Del.
(§2) Sterilization indicators were made as described above with spores that had been coated with each of the chemicals and concentrations listed in Table 6. The indicators were placed in instrument trays and exposed to a hydrogen peroxide plasma sterilization procedure at 45–55° C. in a STERRAD™ 100SI GMP Sterilizer, obtained from Advanced Sterilization Products Co., Irvine, Calif. During the sterilization procedure a vacuum was drawn in the sterilization chamber for 5–6 minutes until the pressure was reduced to 300 mTorr. A 1.8 ml aliquot of an aqueous solution of 58–60% hydrogen peroxide was then injected into the sterilization chamber over a period of about 6 minutes, yielding an empty chamber concentration of […] hydrogen peroxide, and hydrogen peroxide vapor was allowed to diffuse throughout the chamber for 1–22 minutes at 6–10 Torr. A vacuum was then drawn, reducing the pressure to 500 mTorr and removing all detectable hydrogen peroxide vapor from the chamber.
(§3) After exposure to the sterilization procedure, the indicators were removed from the sterilizer and the inner containers containing the enzyme substrate and nutrient medium were crushed. The indicators were then incubated at 60° C. and examined for fluorescence every hour for 5 hours using a 3M™ ATTEST™ Model 190 Rapid Autoreader, commercially available from 3M Company, St. Paul, Minn. Additionally, spore growth, as indicated by a color change from purple to yellow, was determined visually after 168 hours of incubation.
(§4) The number of growth positive indicators detected after 168 hours of incubation is recorded in Table 6.
as §2, with “7.” for “6.”
as §2, with “8.” for “6.”, “chamber. […]” for “chamber.”

[2] = system: Bacillus stearothermophilus spores; test: Spore outgrowth (color change) of indicators after prevacuum steam sterilization; format: cell-based; conditions: Example 4, 4-pulse prevacuum steam 121° C., 7–18 min
In short: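 Bacillus stearothermophilus ATCC 7953 spores were cleaned, mixed into a heated sterilant-resistant coating chemical solution and pipetted onto paper strips at about 1×10^6 spores per strip. The strips were dried and placed in indicators, then exposed to a 4-pulse prevacuum steam cycle at 121° C. After exposure the media ampoule was crushed, and growth was judged visually as a purple-to-yellow color change after 168 hours at 60° C.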

[3] = system: enzyme associated with Bacillus stearothermophilus spores; test: Rapid enzyme fluorescence readout of dual rapid readout indicators after prevacuum steam sterilization; format: biochemical; conditions: Example 4, 4-pulse prevacuum steam 121° C., 7–18 min
In short: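 Bacillus stearothermophilus ATCC 7953 spores were coated with a sterilant-resistant chemical solution and pipetted onto paper strips at about 1×10^6 spores per strip. Each strip sat in a dual rapid readout indicator beside a crushable inner container of nutrient medium holding 4-methylumbelliferyl-alpha-D-glucoside at pH 7.6. Indicators went through a 4-pulse prevacuum steam cycle at 121° C, were activated, incubated at 60° C, and read for fluorescence on a 3M ATTEST Model 190 Rapid Autoreader.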

[4] = system: Bacillus stearothermophilus spores; test: Spore outgrowth (color change) of indicators after hydrogen peroxide plasma sterilization; format: cell-based; conditions: Example 6, 50 mg/ml coating, 1–22 min diffusion
Method: as §1, §2, §3, §4
as §2, with “7.” for “6.”
as §2, with “8.” for “6.”, “chamber. […]” for “chamber.”

Substance | accuracy of sterilization indicators compared to indicators made with untreated spores ([1]; 1–3 hours after exposure) | FLUORESCENCE - PERCENT POSITIVE 1 HR [1] [%] | FLUORESCENCE - PERCENT POSITIVE 2 HR [1] [%] | FLUORESCENCE - PERCENT POSITIVE 3 HR [1] [%] | FLUORESCENCE - PERCENT POSITIVE 4 HR [1] [%] | FLUORESCENCE - PERCENT POSITIVE 5 HR [1] [%] | NO. GROWTH POSITIVE 168 HR ([2]; 50 mg/ml coating) | NO. GROWTH POSITIVE 168 HR ([2]; 100 mg/ml coating) | FLUORESCENCE - PERCENT POSITIVE 1 HR ([3]; 50 mg/ml coating) [%] | FLUORESCENCE - PERCENT POSITIVE 2 HR ([3]; 50 mg/ml coating) [%] | FLUORESCENCE - PERCENT POSITIVE 3 HR ([3]; 50 mg/ml coating) [%] | FLUORESCENCE - PERCENT POSITIVE 4 HR ([3]; 50 mg/ml coating) [%] | FLUORESCENCE - PERCENT POSITIVE 1 HR ([3]; 100 mg/ml coating) [%] | FLUORESCENCE - PERCENT POSITIVE 2 HR ([3]; 100 mg/ml coating) [%] | FLUORESCENCE - PERCENT POSITIVE 3 HR ([3]; 100 mg/ml coating) [%] | FLUORESCENCE - PERCENT POSITIVE 4 HR ([3]; 100 mg/ml coating) [%] | NO. GROWTH POSITIVE 168 HR [4]
Decaglyceryl Pentaoleate | improved | 82.4 | 94.1 | 100 | 100 | 100 | 16 | 24 | 0 | 0 | 18.8 | 31.3 | 12.5 | 25.0 | 37.5 | 45.8 | 17
Decaglyceryl Trioleate |  | 85.0 | 97.5 | 100 | 100 | 100 | 19 | 26 | 0.0 | 21.1 | 47.4 | 68.4 | 23.1 | 50.0 | 73.1 | 92.3 | 40
Hexaglyceryl Dioleate |  | 66.7 | 100 | 100 | 100 | 100 | 7 | 23 | 0 | 0 | 0 | 0 | 0 | 0 | 0 | 0 | 6
